According to PubChem BioAssay (NCI):
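In this assay, cells in 96-well plates receive the compound at five concentrations for 48 hours. Endpoints are linearly interpolated between the surrounding concentrations. TGI denotes the concentration required for complete inhibition of growth.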

Tests used:
Assay in all cases: NCI tumour cell line growth inhibition, 48 h
[1] = system: SR leukemia
[2] = system: SNB-75 CNS
[3] = system: 786-0 renal
[4] = system: MALME-3M melanoma
[5] = system: SN12C renal
[6] = system: UACC-62 melanoma
[7] = system: HCT-116 colon
[8] = system: SK-MEL-28 melanoma
[9] = system: TK-10 renal
[10] = system: NCI-H522 lung
[11] = system: PC-3 prostate
[12] = system: K-562 leukemia
[13] = system: MOLT-4 leukemia
[14] = system: MDA-MB-231 breast
[15] = system: MDA-N
[16] = system: BT-549 breast
[17] = system: SF-268 CNS
[18] = system: NCI-H23 lung
[19] = system: UACC-257 melanoma
[20] = system: SW-620 colon
[21] = system: OVCAR-3 ovarian
[22] = system: DU-145 prostate
[23] = system: OVCAR-4 ovarian
[24] = system: A498 renal
[25] = system: IGROV1 ovarian
[26] = system: SNB-19 CNS
[27] = system: RXF 393 renal
[28] = system: HL-60(TB) leukemia
[29] = system: NCI-H460 lung
[30] = system: NCI/ADR-RES ovarian
[31] = system: HS 578T breast
[32] = system: T-47D breast
[33] = system: KM12 colon
[34] = system: UO-31 renal
[35] = system: OVCAR-5 ovarian
[36] = system: HCT-15 colon
[37] = system: SF-295 CNS
[38] = system: EKVX NSCLC
[39] = system: RPMI-8226 leukemia
[40] = system: SK-MEL-5 melanoma
[41] = system: HOP-92 NSCLC
[42] = system: HOP-62 NSCLC
[43] = system: CCRF-CEM leukemia
[44] = system: SF-539 CNS
[45] = system: ACHN renal
[46] = system: LOX IMVI melanoma
[47] = system: NCI-H226 lung
[48] = system: HCC-2998 colon
[49] = system: M14 melanoma
[50] = system: OVCAR-8 ovarian
[51] = system: SK-OV-3 ovarian
[52] = system: A549 NSCLC
[53] = system: COLO 205 colon
[54] = system: MDA-MB-435
[55] = system: MCF7 breast
[56] = system: HT29 colon
[57] = system: SK-MEL-2 melanoma
[58] = system: CAKI-1 renal
[59] = system: U251 CNS

With OCC1OC(n2cnc3c(SCc4ccccc4)ncnc32)C(O)C1O (stereo not drawn) the TGI [1] was > 100 µM, the TGI [2] was > 100 µM and the TGI [3] was > 100 µM. For the same compound, the TGI [4] was > 100 µM, the TGI [5] was > 100 µM and the TGI [6] was > 100 µM. The TGI [7] was > 100 µM, the TGI [8] was > 100 µM and the TGI [9] was > 100 µM. The TGI [10] was > 100 µM, the TGI [11] was > 100 µM and the TGI [12] was > 100 µM. For the same compound, the TGI [13] was > 39.8 µM, the TGI [14] was > 100 µM and the TGI [15] was > 100 µM. For the same compound, the TGI [16] was > 100 µM, the TGI [17] was > 100 µM and the TGI [18] was > 100 µM. The TGI [19] was > 100 µM, the TGI [20] was > 100 µM and the TGI [21] was > 100 µM. The TGI [22] was > 100 µM, the TGI [23] was > 100 µM and the TGI [24] was > 31.4 µM. For the same compound, the TGI [25] was > 100 µM, the TGI [26] was > 100 µM and the TGI [27] was > 100 µM. The TGI [28] was 8.52 µM, the TGI [29] was > 100 µM and the TGI [30] was > 100 µM. The TGI [31] was > 61.4 µM, the TGI [32] was > 100 µM and the TGI [33] was > 100 µM. For the same compound, the TGI [34] was > 100 µM, the TGI [35] was > 100 µM and the TGI [36] was > 100 µM. The TGI [37] was > 100 µM, the TGI [38] was > 100 µM and the TGI [39] was > 100 µM. For the same compound, the TGI [40] was > 100 µM, the TGI [41] was > 79.9 µM and the TGI [42] was > 100 µM. For the same compound, the TGI [43] was 3.55 µM, the TGI [44] was > 100 µM and the TGI [45] was > 100 µM. For the same compound, the TGI [46] was > 100 µM, the TGI [47] was > 100 µM and the TGI [48] was > 100 µM. For the same compound, the TGI [49] was > 100 µM, the TGI [50] was 37.4 µM and the TGI [51] was > 100 µM. For the same compound, the TGI [52] was > 100 µM, the TGI [53] was > 94.9 µM and the TGI [54] was > 100 µM. The TGI [55] was > 100 µM, the TGI [56] was > 100 µM and the TGI [57] was > 100 µM. For the same compound, the TGI [58] was > 100 µM and the TGI [59] was > 100 µM.
For Nc1nc(Br)nc2ncn(C3CC(O)C(CO)O3)c12 (stereo not drawn), the TGI [1] was > 81 µM, the TGI [2] was > 100 µM and the TGI [3] was > 100 µM. The TGI [4] was > 100 µM, the TGI [5] was > 100 µM and the TGI [6] was > 100 µM. The TGI [7] was > 100 µM, the TGI [8] was > 100 µM and the TGI [9] was > 100 µM. The TGI [10] was > 100 µM, the TGI [11] was > 100 µM and the TGI [12] was > 100 µM. The TGI [13] was 0.202 µM, the TGI [14] was > 100 µM and the TGI [15] was > 100 µM. The TGI [16] was > 100 µM, the TGI [17] was > 100 µM and the TGI [18] was > 53 µM. For the same compound, the TGI [19] was > 100 µM, the TGI [20] was > 100 µM and the TGI [21] was > 100 µM. For the same compound, the TGI [22] was > 100 µM, the TGI [23] was > 100 µM and the TGI [24] was > 100 µM. The TGI [25] was > 100 µM, the TGI [26] was > 100 µM and the TGI [27] was > 100 µM. For the same compound, the TGI [28] was 9.35 µM, the TGI [29] was > 100 µM and the TGI [30] was > 63.1 µM. For the same compound, the TGI [31] was > 100 µM, the TGI [32] was > 100 µM and the TGI [33] was > 100 µM. For the same compound, the TGI [34] was > 100 µM, the TGI [35] was > 100 µM and the TGI [36] was > 100 µM. For the same compound, the TGI [37] was > 100 µM, the TGI [38] was > 100 µM and the TGI [39] was > 100 µM. The TGI [40] was > 100 µM, the TGI [41] was > 100 µM and the TGI [42] was > 100 µM. For the same compound, the TGI [43] was > 100 µM, the TGI [44] was > 100 µM and the TGI [45] was > 100 µM. For the same compound, the TGI [46] was > 100 µM, the TGI [47] was > 100 µM and the TGI [48] was > 100 µM. For the same compound, the TGI [49] was 33.4 µM, the TGI [50] was > 100 µM and the TGI [51] was > 100 µM. The TGI [52] was > 100 µM, the TGI [53] was > 100 µM and the TGI [54] was > 100 µM. For the same compound, the TGI [55] was > 100 µM, the TGI [56] was > 100 µM and the TGI [57] was > 100 µM. The TGI [58] was > 100 µM and the TGI [59] was > 100 µM.
